The supplement of paper PMC11061612

How the values were obtained:
Assay in all cases: Bliss excess, mean over the matrix (fraction); higher = more synergy
[1] = system: A4-Fuk (B-Lymphoblastic Leukemia)
Method in brief: (§1)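 Cell lines in DMEM/F12 or RPMI with 10% FBS were plated in 1536-well plates, held 24 hours at 37°C, 5% CO2, then given two-drug dose matrices for 72 hours (DMSO typically 0.2%). Viability was read by CellTiter-Glo 2.0 luminescence and scaled as inhibition from 0 (vehicle wells) to 1 (blank wells). Combination Emax is the second-highest inhibition in the matrix; Bliss excess is observed combination effect minus expected EA + EB − EA·EB, EA and EB being single-agent effects.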

[2] = system: ALL-SIL (T-Lymphoblastic Leukemia)
Method in brief: as §1

[3] = system: CADO-ES1 (Ewing's Sarcoma)
Method in brief: as §1

[4] = system: COLO-668 (Small Cell Lung Carcinoma)
Method in brief: as §1

[5] = system: DU-145 (Prostate Carcinoma)
Method in brief: as §1

[6] = system: EFO-21 (Ovarian Carcinoma)
Method in brief: as §1

[7] = system: EJM (Plasma Cell Myeloma)
Method in brief: as §1

EW-1 (Ewing's Sarcoma) = system: EW-1 (Ewing's Sarcoma)
Method in brief: as §1

[8] = system: G-401 (Other Solid Carcinomas)
Method in brief: as §1

[9] = system: KOPN-8 (B-Lymphoblastic Leukemia)
Method in brief: as §1

[10] = system: LC-1-sq (Squamous Cell Lung Carcinoma)
Method in brief: as §1

[11] = system: MDA-MB-453 (Breast Carcinoma)
Method in brief: as §1

[12] = system: MOG-G-UVW (Low Grade Glioma)
Method in brief: as §1

[13] = system: NCI-H1355 (Lung Adenocarcinoma)
Method in brief: as §1

[14] = system: NCI-H1993 (Lung Adenocarcinoma)
Method in brief: as §1

[15] = system: NCI-H2122 (Lung Adenocarcinoma)
Method in brief: as §1

[16] = system: OACM5-1 (Esophageal Adenocarcinoma)
Method in brief: as §1

[17] = system: SK-LU-1 (Lung Adenocarcinoma)
Method in brief: as §1

[18] = system: SKN (Other Solid Carcinomas)
Method in brief: as §1

[19] = system: SNU-387 (Hepatocellular Carcinoma)
Method in brief: as §1

Row | SMILES | Bliss excess [1] | Bliss excess [2] | Bliss excess [3] | Bliss excess [4] | Bliss excess [5] | Bliss excess [6] | Bliss excess [7] | Bliss excess (EW-1 (Ewing's Sarcoma)) | Bliss excess [8] | Bliss excess [9] | Bliss excess [10] | Bliss excess [11] | Bliss excess [12] | Bliss excess [13] | Bliss excess [14] | Bliss excess [15] | Bliss excess [16] | Bliss excess [17] | Bliss excess [18] | Bliss excess [19]
1 | CC(=O)c1c(C)c2cnc(Nc3ccc(N4CCNCC4)cn3)nc2n(C2CCCC2)c1=O [Palbociclib] + Cn1cnc2c(F)c(Nc3ccc(Br)cc3Cl)c(C(=O)NOCCO)cc21 [Selumetinib] (first compound max 10 µM, 7x7, partner max 10 µM) | 0.132 | -0.0358 | -0.13 | 0.0008 | -0.0326 | -0.0531 | -0.0193 | -0.0082 | -0.0428 | -0.0208 | -0.0004 | -0.036 | 0.0912 | 0.0542 | 0.0904 | 0.0823 | -0.0247 | -0.0422 | 0.0085 | -0.0425
2 | C[C@@H]1COCCN1c1cc(C2([S@](C)(=N)=O)CC2)nc(-c2ccnc3[nH]ccc23)n1 [AZD6738] + O=C(c1cc(Cc2n[nH]c(=O)c3ccccc23)ccc1F)N1CCN(C(=O)C2CC2)CC1 [Olaparib] (first compound max 10 µM, 7x7, partner max 10 µM) | -0.0081 | 0.0291 | 0.03 | 0.0193 | 0.0008 | -0.0375 | -0.0078 | 0.0174 | 0.0454 | -0.0358 | 0.0157 | -0.0764 | 0.0629 | -0.0357 | 0.033 | -0.0303 | 0.0071 | -0.03 | 0.0031 | -0.0225
3 | CS(=O)(=O)CCNCc1ccc(-c2ccc3ncnc(Nc4ccc(OCc5cccc(F)c5)c(Cl)c4)c3c2)o1 [Lapatinib] + C[C@@H](Oc1cc(-c2cnn(C3CCNCC3)c2)cnc1N)c1c(Cl)ccc(F)c1Cl [Crizotinib] (first compound max 10 µM, 7x7, partner max 10 µM) | -0.0407 | 0.0033 | -0.0023 | -0.0594 | -0.0242 | -0.0148 | -0.0001 | -0.0239 | -0.0617 | -0.0482 | 0.0171 | 0.0232 | 0.0013 | -0.0141 | 0.0268 | -0.0181 | -0.0691 | -0.0582 | -0.0289 | -0.0754
4 | CS(=O)(=O)CCNCc1ccc(-c2ccc3ncnc(Nc4ccc(OCc5cccc(F)c5)c(Cl)c4)c3c2)o1 [Lapatinib] + NC1(c2ccc(-c3nc4ccn5c(=O)[nH]nc5c4cc3-c3ccccc3)cc2)CCC1 [MK-2206] (first compound max 10 µM, 7x7, partner max 10 µM) | 0.0825 |  |  | -0.0393 | -0.0235 | 0.0024 |  |  |  | -0.0586 |  | 0.0474 | 0.0675 | 0.0319 | -0.0147 |  |  | -0.0239 | -0.0645 | 0.0033
5 | Cc1c2c(nn1C)CSCc1cc(n(C)n1)CSc1cc(c3ccccc3c1)OCCCc1c(C(=O)O)n(C)c3c-2c(Cl)ccc13 [AZD5991] + Cc1cc2ncnn2cc1Nc1ncc2c(n1)n(C1CCOCC1)c(=O)n2C [AZD7648] (first compound max 1 µM, 7x7, partner max 10 µM) | 0.0085 | -0.0253 | -0.0296 | 0.0003 | -0.0307 | -0.116 | 0.0164 | -0.0108 | -0.167 | -0.0816 | 0.0048 | -0.0328 | 0.0048 | -0.0055 | -0.0225 | -0.0559 |  | -0.062 | -0.0386 | -0.0318
6 | Cc1c2c(nn1C)CSCc1cc(n(C)n1)CSc1cc(c3ccccc3c1)OCCCc1c(C(=O)O)n(C)c3c-2c(Cl)ccc13 [AZD5991] + C[C@@H]1COCCN1C2=NC(=NC(=C2)C3(CC3)[S@](=N)(=O)C)C4=C5C=CNC5=NC=C4 [AZD6738] (first compound max 1 µM, 7x7, partner max 10 µM) | -0.0297 | 0.0316 | 0.0135 | -0.0064 | 0.0122 | 0.016 | 0.0277 | 0.0344 | -0.0341 | -0.0067 | 0.047 | 0.0525 | 0.0058 | 0.0264 | -0.0216 | 0.0199 | 0.0257 | -0.0032 | -0.0121 | 0.0408
7 | CN(CCO)CC[C@H](CSc1ccccc1)Nc1ccc(S(=O)(=O)NC(=O)c2ccc(N3CCC([C@@H](O)c4ccccc4-c4ccc(Cl)cc4)CC3)cc2)cc1S(=O)(=O)C(F)(F)F [AZD4320] + C=CCn1c(=O)c2cnc(Nc3ccc(N4CCN(C)CC4)cc3)nc2n1-c1cccc(C(C)(C)O)n1 [AZD1775] (first compound max 1 µM, partner max 1 µM) | -0.0107 | 0.0693 | -0.005 | 0.0801 | -0.0308 | -0.078 | 0.0256 | 0.0581 | -0.0058 | 0.0016 | 0.0279 | 0.047 | -0.0193 | 0.0162 | 0.0951 | -0.0143 | -0.01 | -0.038 | 0.0666 | 0.0102
8 | CN(C)CCCOc1ccc(-c2ccc3ncc4c(c3c2)n(C2CCOCC2)c(=O)n4C)cn1 [AZD0156] + C[C@@H]1COCCN1C2=NC(=NC(=C2)C3(CC3)[S@](=N)(=O)C)C4=C5C=CNC5=NC=C4 [AZD6738] (first compound max 1 µM, 7x7, partner max 10 µM) | -0.0079 | -0.0759 | 0.0405 | -0.017 | -0.0233 | -0.0206 | 0.0266 | 0.042 | -0.0017 | -0.0166 | -0.0098 | -0.0229 | 0.0282 | -0.0234 | -0.0329 | 0.0154 | -0.0282 | 0.0073 | -0.0069 | 0.0187
9 | Cc1c2c(nn1C)CSCc1cc(n(C)n1)CSc1cc(c3ccccc3c1)OCCCc1c(C(=O)O)n(C)c3c-2c(Cl)ccc13 [AZD5991] + C=CCn1c(=O)c2cnc(Nc3ccc(N4CCN(C)CC4)cc3)nc2n1-c1cccc(C(C)(C)O)n1 [AZD1775] (first compound max 1 µM, partner max 1 µM) | 0.0204 | 0.0026 | -0.0308 | -0.0643 | 0.0621 | 0.0177 | 0.0357 | 0.01 | 0.0023 | -0.0397 | -0.0139 | -0.0091 | -0.0756 | 0.0071 | 0.0026 |  | -0.04 | -0.0082 | -0.0269 | -0.0632
10 | Cc1c2c(nn1C)CSCc1cc(n(C)n1)CSc1cc(c3ccccc3c1)OCCCc1c(C(=O)O)n(C)c3c-2c(Cl)ccc13 [AZD5991] + Nc1ccn([C@@H]2O[C@H](CO)[C@@H](O)C2(F)F)c(=O)n1 [Gemcitabine] (first compound max 1 µM, 7x7, partner max 0.3 µM) | -0.0182 |  |  | -0.0674 | -0.0284 | -0.0204 |  |  |  |  |  | 0.0145 | 0.0085 | -0.0333 | -0.0064 |  |  | -0.0518 | -0.0331 | -0.0021
11 | O=C(c1cc(Cc2n[nH]c(=O)c3ccccc23)ccc1F)N1CCN(C(=O)C2CC2)CC1 [Olaparib] + CN(CC[C@H](CSC1=CC=CC=C1)NC2=C(C=C(C=C2)S(=O)(=O)NC(=O)C3=CC=C(C=C3)N4CCC(CC4)[C@H](C5=CC=CC=C5C6=CC=C(C=C6)Cl)O)S(=O)(=O)C(F)(F)F)CCO [AZD4320] (first compound max 10 µM, 7x7, partner max 1 µM) | -0.0428 |  |  | 0.0025 | -0.0305 | -0.0415 |  |  |  |  |  | -0.0342 | -0.0009 | -0.0336 | -0.0405 |  |  | -0.0445 | -0.0712 | -0.0863
12 | C=CCn1c(=O)c2cnc(Nc3ccc(N4CCN(C)CC4)cc3)nc2n1-c1cccc(C(C)(C)O)n1 [AZD1775] + Nc1ccn([C@@H]2O[C@H](CO)[C@@H](O)C2(F)F)c(=O)n1 [Gemcitabine] (first compound max 1 µM, partner max 0.3 µM) | 0.009 |  |  | -0.0734 | -0.0385 | -0.0653 |  |  |  |  |  | -0.0309 | 0.0183 | 0.0478 | -0.0021 |  |  | -0.0837 | -0.0709 | -0.0035
13 | Cc1c2c(nn1C)CSCc1cc(n(C)n1)CSc1cc(c3ccccc3c1)OCCCc1c(C(=O)O)n(C)c3c-2c(Cl)ccc13 [AZD5991] + CC(=O)O[C@H]1C(=O)[C@@]2(C)[C@H]([C@H](OC(=O)c3ccccc3)[C@]3(O)C[C@H](OC(=O)[C@H](O)[C@@H](NC(=O)c4ccccc4)c4ccccc4)C(C)=C1C3(C)C)[C@]1(OC(C)=O)CO[C@@H]1C[C@@H]2O [Paclitaxel] (first compound max 1 µM, 7x7, partner max 3 µM) | -0.0069 |  |  | 0.028 | 0.0077 | 0.0151 |  |  |  |  |  | 0.231 | 0.0217 | -0.0431 | -0.037 |  |  | -0.0288 | -0.007 | 0.0019
14 | CC1(C)CCC(CN2CCN(c3ccc(C(=O)NS(=O)(=O)c4ccc(NCC5CCOCC5)c([N+](=O)[O-])c4)c(Oc4cnc5[nH]ccc5c4)c3)CC2)=C(c2ccc(Cl)cc2)C1 [Venetoclax] + CS(=O)(=O)CCNCc1ccc(-c2ccc3ncnc(Nc4ccc(OCc5cccc(F)c5)c(Cl)c4)c3c2)o1 [Lapatinib] (first compound max 1 µM, 7x7, partner max 10 µM) | -0.0406 |  |  | 0.0091 | -0.0511 | -0.0323 |  |  |  |  |  | -0.0106 | -0.0012 | -0.0548 | -0.0311 |  |  | -0.0772 | -0.0497 | -0.0514
15 | C[C@@H](Nc1cc(F)cc(F)c1)c1cc(C(=O)N(C)C)cc2c(=O)cc(N3CCOCC3)oc12 [AZD8186] + C1CN(CCC1(C(=O)N[C@@H](CCO)C2=CC=C(C=C2)Cl)N)C3=NC=NC4=C3C=CN4 [AZD5363] (first compound max 10 µM, 7x7, partner max 10 µM) | -0.0183 |  |  | -0.002 | -0.0038 | -0.0376 |  |  |  |  |  | 0.0219 | -0.0364 | -0.0244 | 0.0154 |  |  | 0.02 | -0.1 | -0.0959
